The values that follow come from US9284345B2 (priority 2007, dated 2016).

For one test, the system named is Immature Rat CX + DHT. Nature of the test: animal or person. The test is classed as in vivo. The note with it: po; for change in vivo at 0.1 mg / change in vivo at 0.5 mg: Rattus norvegicus, 168 h.
For test [1], the system named is Shionogi mouse mammary carcinoma cells. Nature of the test: cells. The test is classed as cell-based. The note with it: for Ki: read-out: Shionogi cells Antiandrogenic activity Ki.
The target of another test is T1, Human Androgen Receptor (Homo sapiens, UniProt P10275).
T1 construct: expressed in transfected cells; host or cells: HEK-293 cells stably transfected with the pCMVneo-hAR plasmid (G-418 selection); cytosol used
T1 sequence (P10275 1-920): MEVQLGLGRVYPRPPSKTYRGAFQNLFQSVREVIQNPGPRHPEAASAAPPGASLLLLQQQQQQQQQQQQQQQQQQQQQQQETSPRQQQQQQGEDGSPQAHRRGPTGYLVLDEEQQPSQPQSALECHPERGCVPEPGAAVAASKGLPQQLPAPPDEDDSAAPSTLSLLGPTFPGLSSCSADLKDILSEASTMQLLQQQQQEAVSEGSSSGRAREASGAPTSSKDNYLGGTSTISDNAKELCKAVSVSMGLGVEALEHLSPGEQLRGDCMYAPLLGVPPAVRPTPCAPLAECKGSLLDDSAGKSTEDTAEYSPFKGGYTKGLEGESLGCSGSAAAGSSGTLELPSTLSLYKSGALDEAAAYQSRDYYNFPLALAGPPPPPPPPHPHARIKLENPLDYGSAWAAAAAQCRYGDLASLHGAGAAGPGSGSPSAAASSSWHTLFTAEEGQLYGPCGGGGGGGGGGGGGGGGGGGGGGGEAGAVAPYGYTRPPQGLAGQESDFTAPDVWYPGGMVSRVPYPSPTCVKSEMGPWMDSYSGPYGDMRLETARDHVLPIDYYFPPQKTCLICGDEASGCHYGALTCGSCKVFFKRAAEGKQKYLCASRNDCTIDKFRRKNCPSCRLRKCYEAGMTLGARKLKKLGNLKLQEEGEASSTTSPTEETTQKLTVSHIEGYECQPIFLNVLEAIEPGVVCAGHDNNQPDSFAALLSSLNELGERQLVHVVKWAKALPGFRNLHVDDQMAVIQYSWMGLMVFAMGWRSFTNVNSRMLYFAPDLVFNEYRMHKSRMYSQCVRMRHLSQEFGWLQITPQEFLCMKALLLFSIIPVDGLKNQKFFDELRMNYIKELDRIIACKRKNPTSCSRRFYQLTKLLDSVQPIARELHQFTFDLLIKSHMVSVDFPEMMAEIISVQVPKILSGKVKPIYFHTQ
The test is classed as binding.

Another test has as its system Immature Rat CX. The conditions noted are these: for In Vivo Agonist % Change vs CX (DHT = +100%) SV / In Vivo Agonist % Change vs CX (DHT = +100%) VP: po.
The mark [2] stands for this setting: read-out: In Vivo Antagonist % Change vs DHT (CX = −100%) SV.
Where [3] appears, read: read-out: In Vivo Antagonist % Change vs DHT (CX = −100%) VP.

Structures are written as SMILES. Where two headings read alike, the source gives them in different places.

As a reminder, the Ki is a dissociation constant, usually derived from enzyme kinetics or from competition with a known ligand. In the case of `C[C@]12CCC3c4ccc(C#N)c(F)c4CCC3C1CC[C@@]2(O)Cc1ccncc1F` (stereo partly drawn) [EM-8455], the change in vivo at 0.1 mg in the test with Immature Rat CX + DHT (setting [2]) is -85 ± 4%. In addition, the change in vivo at 0.1 mg with Immature Rat CX + DHT (setting [3]) is -49 ± 3%. In addition, in test [1], the “Shionogi cells Antiandrogenic activity Ki OH-Flu/Ki compound” value came to 3.1 and the inhibition constant (Ki) was 1.9 nM. Moreover, the “Human Androgen Receptor Binding RBA (%) R1881 = 100%” value at Human Androgen Receptor is 9.1%. In addition, in the test with Immature Rat CX, the “In Vivo Agonist % Change vs CX (DHT = +100%) SV” value is on record as “+1 ± 2%” and the “In Vivo Agonist % Change vs CX (DHT = +100%) VP” value is 0%.
As for `C[C@]12CCC3c4ccc(C#N)c(F)c4CCC3C1CC[C@@]2(O)Cc1ccncc1` (stereo partly drawn) [EM-5855], in test [1], the “Shionogi cells Antiandrogenic activity Ki OH-Flu/Ki compound” value was found to be 11 ± 1 and the Ki was determined as 1 ± 0.2 nM. For the same molecule, the “Human Androgen Receptor Binding RBA (%) R1881 = 100%” value at Human Androgen Receptor was 8.2 ± 0.5%. In the test with Immature Rat CX, the “In Vivo Agonist % Change vs CX (DHT = +100%) SV” value was “[1 ± 4] %” and the “In Vivo Agonist % Change vs CX (DHT = +100%) VP” value was “[2 ± 1] %”.
Take `C[C@]12CCC3c4ccc(C#N)c(Cl)c4CCC3C1CCC[C@@]2(O)Cc1ccncc1` (stereo partly drawn) [EM-5943]: the Ki in test [1] was found to be 2.1 ± 1.8 nM. The “Human Androgen Receptor Binding RBA (%) R1881 = 100%” value on Human Androgen Receptor turned out to be 26%. Also, in the test with Immature Rat CX, the “In Vivo Agonist % Change vs CX (DHT = +100%) SV” value is reported as “+3 ± 4%” and the “In Vivo Agonist % Change vs CX (DHT = +100%) VP” value is recorded as “+2 ± 2%”.
With `C[C@]12CCC3c4ccc(C#N)c(Cl)c4CCC3C1CC[C@@]2(O)Cc1cc[n+]([O-])cc1F` (stereo partly drawn) [EM-5987], the change in vivo at 0.5 mg is -83% in the test with Immature Rat CX + DHT (setting [2]) and -69% in the test on Immature Rat CX + DHT (setting [3]). In addition, in test [1], the Ki came out at 0.35 ± 0.15 nM. The “Human Androgen Receptor Binding RBA (%) R1881 = 100%” value at Human Androgen Receptor stood at 6.8 ± 1.7%.
For `C[C@]12CCC3c4ccc(C#N)c(F)c4CCC3C1CC[C@@]2(O)Cc1cc[n+]([O-])cc1Cl` (stereo partly drawn) [EM-8633], the values for the change in vivo at 0.1 mg in the test on Immature Rat CX + DHT (setting [2]) and in the test on Immature Rat CX + DHT (setting [3]) were -83% and -42 ± 5%, respectively. In test [1], the Ki came to 0.8 nM. Besides, the “Human Androgen Receptor Binding RBA (%) R1881 = 100%” value on Human Androgen Receptor stood at 2.3%. Further, the “In Vivo Agonist % Change vs CX (DHT = +100%) SV” value in the test on Immature Rat CX was 1%. In addition, the “In Vivo Agonist % Change vs CX (DHT = +100%) VP” value with Immature Rat CX came to 0%.
Take `C[C@]12CCC3c4ccc(C#N)c(F)c4CCC3C1CC[C@@]2(O)Cc1ccncc1Cl` (stereo partly drawn) [EM-8632]: in the test with Immature Rat CX + DHT (rat, in vivo), the “In Vivo Antagonist % Change vs DHT (CX = −100%) SV” value was −74 ± 3% and the “In Vivo Antagonist % Change vs DHT (CX = −100%) VP” value was −43 ± 6%. Moreover, in test [1], the “Shionogi cells Antiandrogenic activity Ki OH-Flu/Ki compound” value stood at 2.1 and the Ki was found to be 4.1 nM. The “Human Androgen Receptor Binding RBA (%) R1881 = 100%” value at Human Androgen Receptor is recorded as 47%.
In the case of `Cc1cnccc1C[C@]1(O)CCC2C3CCc4c(ccc(C#N)c4F)C3CC[C@@]21C` (stereo partly drawn) [EM-8504], the change in vivo at 0.1 mg in the test on Immature Rat CX + DHT (setting [2]) was -75 ± 2%; in the test with Immature Rat CX + DHT (setting [3]) it was -51 ± 13%. For the same molecule, the “Shionogi cells Antiandrogenic activity Ki OH-Flu/Ki compound” value in test [1] was 7.5. In test [1], the Ki is 2.5 nM. Besides, the “Human Androgen Receptor Binding RBA (%) R1881 = 100%” value on Human Androgen Receptor was 6.1%.
In the case of `C[C@H]1C[C@@]2(C)C(CC[C@@]2(O)Cc2ccncc2F)C2CCc3c(ccc(C#N)c3F)C21` (stereo partly drawn) [EM-6594], in the test with Immature Rat CX + DHT (rat, in vivo), the “In Vivo Anti-A Rat CX + DHT % change vs DHT (CX CONT = −100%) SV” value is “[−69 ± 4] %” and the “In Vivo Anti-A Rat CX + DHT % change vs DHT (CX CONT = −100%) VP” value was “[−56 ± 4] %”. In test [1], the “% of stim of basal at 10^−7M (% over basal)” value is “+224%” and the “% of stim of basal at 10^−7 M (DHT = 100%)” value is recorded as “+63%”. Also, the “% of inh of DHT at 10^−7 M (Basal = 100%)” value in test [1] (0.0003 µM) was “+37%”. For the same molecule, the “Human Androgen Receptor Binding RBA (%) R1881 = 100%” value at Human Androgen Receptor was determined as 292%. Also, in the test with Immature Rat CX, the “In Vivo Agonist Rat CX % change vs CX (DHT CONT = +100%) Bulbo” value is “+97 ± 19%”, the “In Vivo Agonist Rat CX % change vs CX (DHT CONT = +100%) SV” value is given as “+13 ± 2%” and the “In Vivo Agonist Rat CX % change vs CX (DHT CONT = +100%) VP” value is recorded as “+28 ± 7%”.
